Experiments:
[1] = test system: Rattus norvegicus; assay: In vivo effective dose to inhibit tryptamine-induced bilateral convulsions in rats; format: functional
[2] = test system: Rattus norvegicus; assay: In vivo effective dose for reversal of tryptamine-induced cyanosis in rats; format: functional
[3] = target: D(3) dopamine receptor (Homo sapiens, UniProt P35462)
Description: Inhibition of [125I]iodosulpiride binding to human Dopamine receptor D3

[4] = test system: Mus musculus; assay: In vivo effective dose for reversal of RO-4-1284 induced hypothermia in mouse; format: functional
[5] = target: Norepinephrine transporter (Rattus norvegicus, UniProt Q9WTR4); assay: Inhibition of [3H]nisoxetine binding to rat Norepinephrine transporter
[6] = target: T1, Adrenergic receptor alpha-1 (Rattus norvegicus, UniProt P15823+P23944+P43140)
T1 sequence (P15823 whole entry): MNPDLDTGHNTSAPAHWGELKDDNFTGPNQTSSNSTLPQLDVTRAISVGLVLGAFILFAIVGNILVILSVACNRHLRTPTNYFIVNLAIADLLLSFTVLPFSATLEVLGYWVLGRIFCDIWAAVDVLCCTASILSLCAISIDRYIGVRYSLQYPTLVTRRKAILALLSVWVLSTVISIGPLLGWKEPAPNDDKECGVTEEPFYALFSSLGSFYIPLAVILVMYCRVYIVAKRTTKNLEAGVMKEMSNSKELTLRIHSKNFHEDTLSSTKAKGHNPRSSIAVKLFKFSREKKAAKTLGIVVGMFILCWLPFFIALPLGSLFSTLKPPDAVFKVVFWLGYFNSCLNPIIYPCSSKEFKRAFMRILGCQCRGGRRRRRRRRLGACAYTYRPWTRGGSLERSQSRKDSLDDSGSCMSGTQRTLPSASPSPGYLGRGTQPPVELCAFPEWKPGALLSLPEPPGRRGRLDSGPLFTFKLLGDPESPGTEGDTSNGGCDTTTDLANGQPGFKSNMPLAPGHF
T1 sequence (P23944 whole entry): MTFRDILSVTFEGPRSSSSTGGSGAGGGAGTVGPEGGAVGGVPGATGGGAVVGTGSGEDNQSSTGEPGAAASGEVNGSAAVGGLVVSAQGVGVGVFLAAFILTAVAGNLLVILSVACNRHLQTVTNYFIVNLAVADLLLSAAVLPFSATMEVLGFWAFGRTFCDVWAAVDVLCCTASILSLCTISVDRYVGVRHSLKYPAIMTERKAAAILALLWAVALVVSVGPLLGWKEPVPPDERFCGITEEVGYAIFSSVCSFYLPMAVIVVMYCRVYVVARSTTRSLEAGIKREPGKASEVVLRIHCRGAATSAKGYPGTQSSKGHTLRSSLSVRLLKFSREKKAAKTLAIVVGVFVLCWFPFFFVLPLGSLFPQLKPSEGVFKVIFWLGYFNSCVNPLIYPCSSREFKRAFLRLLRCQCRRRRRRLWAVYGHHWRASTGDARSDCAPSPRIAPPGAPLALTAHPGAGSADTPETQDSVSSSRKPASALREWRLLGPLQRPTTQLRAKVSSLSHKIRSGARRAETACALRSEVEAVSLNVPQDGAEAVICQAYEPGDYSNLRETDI
T1 sequence (P43140 whole entry): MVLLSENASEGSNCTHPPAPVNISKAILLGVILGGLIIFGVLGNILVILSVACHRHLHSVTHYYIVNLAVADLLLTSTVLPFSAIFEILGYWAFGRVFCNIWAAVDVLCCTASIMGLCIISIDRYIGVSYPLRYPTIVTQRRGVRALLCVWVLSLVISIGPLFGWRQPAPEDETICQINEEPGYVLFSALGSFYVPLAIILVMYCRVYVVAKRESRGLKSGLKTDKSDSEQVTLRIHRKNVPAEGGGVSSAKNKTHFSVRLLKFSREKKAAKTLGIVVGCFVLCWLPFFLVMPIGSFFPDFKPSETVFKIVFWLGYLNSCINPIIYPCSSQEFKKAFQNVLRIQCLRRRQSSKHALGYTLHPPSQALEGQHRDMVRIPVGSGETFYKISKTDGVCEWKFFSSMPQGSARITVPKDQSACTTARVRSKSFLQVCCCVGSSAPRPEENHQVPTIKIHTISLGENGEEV
Description: Inhibition of [3H]prazosin binding to rat Alpha-1 adrenergic receptor

[7] = test system: Rattus norvegicus; assay: In vivo effective dose to inhibit apomorphine induced agitation in rats upon subcutaneous administration; format: functional; conditions: sc
[8] = target: 5-hydroxytryptamine receptor 7 (Homo sapiens, UniProt P34969)
Description: Inhibition of [3H]5-HT binding to human 5-hydroxytryptamine 7 receptor

[9] = target: Histamine H1 receptor (Homo sapiens, UniProt P35367)
Description: Inhibition of [3H]pyrilamine binding to human Histamine H1 receptor

[10] = species on record: Rattus norvegicus; assay: Effective dose for antagonistic activity against m-chlorophenyl-piperazine induced anxiety in rats; format: functional
[11] = target: T2, Alpha-2A adrenergic receptor (Homo sapiens, UniProt P08913)
T2 sequence (P08913 whole entry): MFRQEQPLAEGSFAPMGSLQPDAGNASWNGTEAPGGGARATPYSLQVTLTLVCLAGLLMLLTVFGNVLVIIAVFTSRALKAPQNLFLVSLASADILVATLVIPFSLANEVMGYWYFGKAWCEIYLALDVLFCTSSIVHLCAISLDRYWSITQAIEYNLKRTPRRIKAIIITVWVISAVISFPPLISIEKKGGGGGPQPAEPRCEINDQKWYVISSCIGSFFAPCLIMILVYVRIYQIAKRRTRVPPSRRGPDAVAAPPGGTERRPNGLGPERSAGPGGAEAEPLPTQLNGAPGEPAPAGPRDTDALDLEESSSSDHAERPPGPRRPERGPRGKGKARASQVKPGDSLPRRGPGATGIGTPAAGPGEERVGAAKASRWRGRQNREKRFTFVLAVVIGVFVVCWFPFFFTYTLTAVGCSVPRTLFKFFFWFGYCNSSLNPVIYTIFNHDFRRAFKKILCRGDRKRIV
Description: Inhibition of [3H]rauwolscine binding to Alpha-2A adrenergic receptor

[12] = test system: Rattus norvegicus; assay: In vivo effective dose for reversal of tryptamine-induced backward locomotion in rats; format: functional
[13] = target: T3, Alpha-2C adrenergic receptor (Homo sapiens, UniProt P18825); assay: Inhibition of [3H]rauwolscine binding to Alpha-2C adrenergic receptor
T3 sequence (P18825 whole entry): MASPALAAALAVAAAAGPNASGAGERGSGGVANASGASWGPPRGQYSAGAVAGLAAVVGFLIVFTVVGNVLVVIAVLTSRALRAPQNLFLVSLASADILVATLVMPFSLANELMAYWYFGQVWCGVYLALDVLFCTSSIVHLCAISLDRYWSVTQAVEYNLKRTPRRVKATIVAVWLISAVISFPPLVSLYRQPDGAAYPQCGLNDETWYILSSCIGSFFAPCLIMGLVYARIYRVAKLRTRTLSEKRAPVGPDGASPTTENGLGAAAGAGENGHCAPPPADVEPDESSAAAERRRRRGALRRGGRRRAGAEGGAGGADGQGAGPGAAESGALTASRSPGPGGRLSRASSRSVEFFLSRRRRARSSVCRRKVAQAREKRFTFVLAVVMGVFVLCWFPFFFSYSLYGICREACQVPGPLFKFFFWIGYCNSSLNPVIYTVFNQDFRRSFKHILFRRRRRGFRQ

[14] = target: T4, 5-hydroxytryptamine receptor 2C (Homo sapiens, UniProt P28335)
T4 sequence (P28335 whole entry): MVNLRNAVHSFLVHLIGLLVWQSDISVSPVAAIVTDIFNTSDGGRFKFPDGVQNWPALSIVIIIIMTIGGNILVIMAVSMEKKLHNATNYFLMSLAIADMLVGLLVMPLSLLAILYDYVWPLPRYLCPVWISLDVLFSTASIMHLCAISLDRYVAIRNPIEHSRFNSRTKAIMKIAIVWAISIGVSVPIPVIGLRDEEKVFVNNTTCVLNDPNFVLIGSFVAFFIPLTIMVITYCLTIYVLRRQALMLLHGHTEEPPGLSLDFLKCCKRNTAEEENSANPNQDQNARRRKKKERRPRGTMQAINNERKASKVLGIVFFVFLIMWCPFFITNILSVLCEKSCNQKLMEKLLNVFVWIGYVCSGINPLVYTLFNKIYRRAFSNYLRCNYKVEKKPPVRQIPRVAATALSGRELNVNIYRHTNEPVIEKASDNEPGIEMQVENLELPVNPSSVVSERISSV
Description: Inhibition of [3H]mesulergine binding to human 5-hydroxytryptamine 2C receptor

[15] = target: D(1A) dopamine receptor (Homo sapiens, UniProt P21728); assay: Inhibition of [3H]SCH-23390 binding to human Dopamine receptor D1
[16] = target: D(1A) dopamine receptor (Rattus norvegicus, UniProt P18901)
Sequence of D(1A) dopamine receptor (Rattus norvegicus, UniProt P18901) (P18901 whole entry): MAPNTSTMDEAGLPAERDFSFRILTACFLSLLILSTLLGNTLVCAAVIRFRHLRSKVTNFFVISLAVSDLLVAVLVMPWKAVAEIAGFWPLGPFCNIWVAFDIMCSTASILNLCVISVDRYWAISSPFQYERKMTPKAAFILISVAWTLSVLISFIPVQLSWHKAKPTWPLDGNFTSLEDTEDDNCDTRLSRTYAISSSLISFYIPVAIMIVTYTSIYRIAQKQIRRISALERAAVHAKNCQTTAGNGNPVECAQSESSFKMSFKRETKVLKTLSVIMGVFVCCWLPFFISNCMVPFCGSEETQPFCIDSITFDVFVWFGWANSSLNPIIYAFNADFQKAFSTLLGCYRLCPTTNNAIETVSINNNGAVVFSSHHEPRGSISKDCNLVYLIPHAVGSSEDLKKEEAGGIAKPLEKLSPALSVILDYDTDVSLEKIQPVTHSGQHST
Description: Inhibition of [3H]SCH-23390 binding to rat Dopamine receptor D1

Sequence of D(1A) dopamine receptor (Homo sapiens, UniProt P21728) (P21728 whole entry): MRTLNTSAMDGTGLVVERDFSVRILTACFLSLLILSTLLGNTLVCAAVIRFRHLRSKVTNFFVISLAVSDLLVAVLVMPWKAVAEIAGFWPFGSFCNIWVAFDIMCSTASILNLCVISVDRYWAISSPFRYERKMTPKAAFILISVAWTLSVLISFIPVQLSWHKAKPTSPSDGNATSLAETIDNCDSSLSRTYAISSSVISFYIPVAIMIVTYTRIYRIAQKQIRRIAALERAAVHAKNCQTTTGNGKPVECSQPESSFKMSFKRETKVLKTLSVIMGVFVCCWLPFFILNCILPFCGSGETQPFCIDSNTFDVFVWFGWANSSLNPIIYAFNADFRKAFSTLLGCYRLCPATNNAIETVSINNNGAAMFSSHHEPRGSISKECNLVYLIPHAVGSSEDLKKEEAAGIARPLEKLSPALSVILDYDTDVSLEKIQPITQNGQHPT
Sequence of Histamine H1 receptor (P35367 whole entry): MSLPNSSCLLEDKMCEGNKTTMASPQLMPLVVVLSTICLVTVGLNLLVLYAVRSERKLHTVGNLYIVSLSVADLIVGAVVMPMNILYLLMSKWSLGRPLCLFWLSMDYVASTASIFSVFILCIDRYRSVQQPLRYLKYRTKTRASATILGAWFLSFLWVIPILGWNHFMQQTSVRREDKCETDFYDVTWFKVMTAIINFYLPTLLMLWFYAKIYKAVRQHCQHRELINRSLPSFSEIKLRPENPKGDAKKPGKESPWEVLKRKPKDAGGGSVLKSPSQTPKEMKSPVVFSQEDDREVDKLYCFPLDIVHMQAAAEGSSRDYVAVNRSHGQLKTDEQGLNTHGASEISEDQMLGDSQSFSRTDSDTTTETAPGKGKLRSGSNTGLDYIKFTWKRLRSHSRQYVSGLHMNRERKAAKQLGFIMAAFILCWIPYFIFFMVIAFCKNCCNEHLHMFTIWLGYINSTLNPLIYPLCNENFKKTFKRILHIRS
Sequence of 5-hydroxytryptamine receptor 7 (P34969 whole entry): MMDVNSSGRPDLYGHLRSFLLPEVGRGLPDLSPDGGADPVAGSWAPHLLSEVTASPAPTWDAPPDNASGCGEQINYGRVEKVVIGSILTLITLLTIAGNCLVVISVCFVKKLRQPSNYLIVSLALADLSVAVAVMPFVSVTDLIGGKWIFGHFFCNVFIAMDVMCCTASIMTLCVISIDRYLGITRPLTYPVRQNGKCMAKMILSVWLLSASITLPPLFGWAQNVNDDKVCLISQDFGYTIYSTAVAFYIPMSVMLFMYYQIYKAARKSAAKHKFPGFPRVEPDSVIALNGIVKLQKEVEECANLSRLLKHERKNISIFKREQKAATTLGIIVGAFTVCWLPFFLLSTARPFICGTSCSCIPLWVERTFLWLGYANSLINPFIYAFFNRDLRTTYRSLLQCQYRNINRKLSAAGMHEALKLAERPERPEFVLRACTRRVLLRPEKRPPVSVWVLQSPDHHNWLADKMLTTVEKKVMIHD
Sequence of D(3) dopamine receptor (P35462 whole entry): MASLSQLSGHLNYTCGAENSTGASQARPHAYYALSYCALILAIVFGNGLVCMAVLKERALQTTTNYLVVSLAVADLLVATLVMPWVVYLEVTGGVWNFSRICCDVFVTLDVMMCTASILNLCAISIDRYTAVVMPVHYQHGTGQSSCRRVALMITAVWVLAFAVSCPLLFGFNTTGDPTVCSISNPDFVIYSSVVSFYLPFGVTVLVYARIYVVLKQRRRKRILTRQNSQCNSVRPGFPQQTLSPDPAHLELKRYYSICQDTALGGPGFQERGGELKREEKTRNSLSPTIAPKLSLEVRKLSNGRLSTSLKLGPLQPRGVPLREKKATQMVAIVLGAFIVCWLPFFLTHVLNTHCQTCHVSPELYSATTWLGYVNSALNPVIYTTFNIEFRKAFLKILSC
Sequence of Norepinephrine transporter (Q9WTR4 whole entry): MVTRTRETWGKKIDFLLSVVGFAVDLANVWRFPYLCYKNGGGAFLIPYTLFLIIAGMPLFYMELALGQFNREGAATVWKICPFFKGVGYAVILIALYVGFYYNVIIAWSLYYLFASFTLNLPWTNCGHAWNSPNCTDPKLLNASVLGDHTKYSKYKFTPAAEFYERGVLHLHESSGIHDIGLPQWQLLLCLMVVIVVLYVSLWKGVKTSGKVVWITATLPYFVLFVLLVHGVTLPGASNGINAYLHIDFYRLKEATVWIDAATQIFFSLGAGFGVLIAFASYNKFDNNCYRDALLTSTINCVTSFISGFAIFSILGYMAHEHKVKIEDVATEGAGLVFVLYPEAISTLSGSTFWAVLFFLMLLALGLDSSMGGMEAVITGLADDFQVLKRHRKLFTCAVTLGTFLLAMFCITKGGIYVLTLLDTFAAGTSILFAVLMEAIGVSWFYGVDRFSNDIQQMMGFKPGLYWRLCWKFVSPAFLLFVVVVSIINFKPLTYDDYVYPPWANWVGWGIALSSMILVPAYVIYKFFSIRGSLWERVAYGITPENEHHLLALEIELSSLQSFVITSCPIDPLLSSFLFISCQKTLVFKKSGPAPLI

SMILES | ED50 [1] [mg/kg] | ED50 [2] [mg/kg] | Ki [3] [µM] | ED50 [4] [mg/kg] | Ki [5] [µM] | Ki [6] [µM] | ED50 [7] [mg/kg] | Ki [8] [µM] | Ki [9] [µM] | ED50 [10] [mg/kg] | Ki [11] [µM] | ED50 [12] [mg/kg] | Ki [13] [µM] | Ki [14] [µM] | Ki [15] [µM] | Ki [16] [µM]
CN(C)C[C@H]1C[C@@H]2c3ccccc3Cc3ccccc3[C@H]2O1 | 0.02 | 0.02 | 0.084 | 0.2 | 0.0078 | 0.108 | 2 | 0.013 | 0.00043 | 0.18 | 0.126 | 1.2 | 0.069 | – | – | –
CN(C)C[C@H]1C[C@@H]2c3ccccc3Sc3ccc(F)cc3[C@H]2O1 | 0.08 | 0.05 | 0.015 | 2 | 0.04 | 0.041 | 1.2 | 0.0065 | 0.0014 | > 2.5 | 0.156 | > 2.5 | 0.093 | 0.0015 | 0.022 | –
CN(C)C[C@@H]1CC2c3ccccc3Sc3ccc(F)cc3[C@H]2O1 (some centres undefined) | – | – | 0.0086 | – | 0.0027 | 0.032 | – | 0.034 | 0.0012 | – | 0.072 | – | 0.078 | 0.00065 | 0.019 | –
CN(C)C[C@@H]1CC2c3ccccc3Oc3ccc(Br)cc3[C@H]2O1 (some centres undefined) | – | – | – | – | > 5.45 | – | – | – | – | – | – | – | – | 0.017 | – | –
Cc1cc2c(s1)Nc1ccccc1N=C2N1CCN(C)CC1 [OLANZAPINE] | 0.086 | 0.032 | – | > 10 | 0.958 | – | 0.26 | – | – | 0.44 | – | – | – | – | – | –
CN(C)C[C@@H]1CC2c3ccccc3Oc3ccc(Cl)cc3[C@H]2O1 (some centres undefined) | – | – | 0.045 | – | 0.088 | 0.228 | – | 0.092 | 0.014 | – | 0.302 | – | 0.677 | 0.0037 | 0.25 | –
CN(C)C[C@H]1CC2c3ccccc3Oc3ccc(Cl)cc3[C@H]2O1 (some centres undefined) | – | – | 0.251 | – | 0.0094 | 0.035 | – | 0.251 | 0.0043 | – | 0.01 | – | 0.026 | 0.0024 | 0.083 | –
CN1CCN2c3ncccc3Cc3ccccc3C2C1 (centres undefined) [MIRTAZAPINE] | 0.32 | 0.8 | – | > 40 | 1.64 | 0.608 | > 10 | – | – | 0.1 | – | 0.5 | 0.018 | 0.039 | – | 4.17
